Results published in PMC12516686, “Design of 2‑Aminobenzothiazole Derivatives Targeting Trypanosomatid PTR1 by a Multidisciplinary Fragment Hybridization Approach” (Journal of Medicinal Chemistry, 2025).
Values joined by “and” are separate entries in the source; they are usually repeats but may differ in a detail not shown here. Identical values can stand only once. Like-named read-outs stand apart in the source and are kept apart here.

Experiments:
TbPTR1 = biological target: T1, TbPTR1 (Trypanosoma brucei brucei, UniProt O76290); experiment: TbPTR1 indirect (cytochrome c-coupled) enzyme assay; assay type: biochemical; conditions: for IC50: indirect assay, triplicate, SD within ± 10% of the value
T1 sequence (O76290 1-268): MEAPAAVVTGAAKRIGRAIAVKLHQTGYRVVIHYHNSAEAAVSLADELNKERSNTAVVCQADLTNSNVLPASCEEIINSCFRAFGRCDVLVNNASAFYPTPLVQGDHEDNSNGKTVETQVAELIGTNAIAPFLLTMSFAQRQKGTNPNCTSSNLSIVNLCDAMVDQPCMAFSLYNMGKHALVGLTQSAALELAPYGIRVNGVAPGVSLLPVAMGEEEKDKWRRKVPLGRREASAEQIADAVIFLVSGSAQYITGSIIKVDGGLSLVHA
Protocol: (§1) The in vitro assays used in the current study were based on those reported in the literature. As PTR1 enzymes use dihydrobiopterin (H2B) as a substrate and also require NADPH for the reaction, the reduction of H2B to tetrahydrobiopterin by PTR1 is nonenzymatically linked with the reduction of cytochrome c in this assay, which is detected at 550 nm. The formation of cyt c Fe^2+ results in an increase in the photometric readout. TbPTR1 and LmPTR1 activity was assayed in a buffer containing 20 mM sodium citrate (pH 6.0). The final reaction mixture contained the test compound at a range of concentrations and TbPTR1/LmPTR1 (6.0 nM/12 nM), H2B (0.3 μM/3 μM), cytochrome c (100 μM/100 μM), and NADPH (500 μM/500 μM). The final assay volume was 50 μL in 384-well clear plates (Greiner Bio-One, 781101). Compound screening was performed by the addition of the compound to the assay plates (in 100% DMSO), followed by the addition of 45 μL Reaction Mix (enzyme, H2B cytochrome c in 20 mM sodium citrate buffer). A pre-read was made at 550 nm using an EnVision Multilabel Reader 2103 (PerkinElmer Inc., US), followed by incubation of the assay plates at 30 °C for 10 min. The reaction was initiated by the addition of 5 μL of NADPH (5 mM in ultrapure water) followed by kinetically reading the assay plates at 550 nm using the EnVision Multilabel Reader at 10, 20, 30, 40, and 50 min. The slope of each assay well was calculated. The screening data were analyzed using ActivityBase (IDBS), and for outlier elimination in the control wells, the 3-σ method was applied. Based on the slope, the data were normalized to the positive control methotrexate for TbPTR1/LmPTR1 (1 μM/50 μM, yielding 100% inhibition) and negative controls (1% DMSO, yielding 0% inhibition), and % inhibition was calculated for all samples. The measurement at time 0 min was used to flag optically interfering samples. Each compound was tested in triplicate, and the pIC50 value, standard deviation, Hill slope, and minimum and maximum signals for each dose–response curve were obtained using a 4-parameter logistic fit in the XE module of Activity Base (IDBS), as also reported previously. ,

786-O cell line = experiment: Mitochondrial toxicity (MitoTracker Red uptake, high content imaging); assay type: cell-based; conditions: for IC50: read-out: mitotox. IC50
Description: Mitochondrial toxicity caused by the synthesized compounds. Uptake of Mito-
Tracker Red (chloromethyl-X-rosamine) to the 786-O cell line was detected with high content
imaging. […]

CYP2C9 = biological target: T2, CYP2C9 (Homo sapiens, UniProt P11712); experiment: Cytochrome P450 assay (P450-Glo), isoform 2C9; assay type: in vitro ADME
T2 construct: purchased Promega; host or cells: baculovirus-infected insect cells
Description: (§2) 3A4. The Promega P450-Glo assay platform was used with microsomal preparations of
(§3) cytochrome P450s from baculovirus-infected insect cells. […]

LmPTR1 = biological target: T3, LmPTR1 (Leishmania major, UniProt Q01782); experiment: LmPTR1 indirect (cytochrome c-coupled) enzyme assay; assay type: biochemical; conditions: for IC50: indirect assay, triplicate, SD within ± 10% of the value
T3 sequence (Q01782 1-288): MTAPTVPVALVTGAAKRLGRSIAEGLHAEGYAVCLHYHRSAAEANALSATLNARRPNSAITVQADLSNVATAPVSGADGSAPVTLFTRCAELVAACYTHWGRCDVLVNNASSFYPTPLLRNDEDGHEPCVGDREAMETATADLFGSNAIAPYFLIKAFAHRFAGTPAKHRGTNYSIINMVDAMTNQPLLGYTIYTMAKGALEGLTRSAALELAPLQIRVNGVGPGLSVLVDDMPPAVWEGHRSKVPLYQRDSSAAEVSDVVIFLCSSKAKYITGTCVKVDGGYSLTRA
Protocol: as §1

CYP2C19 = biological target: T4, CYP2C19 (Homo sapiens, UniProt P33261); experiment: Cytochrome P450 assay (P450-Glo), isoform 2C19; assay type: in vitro ADME
T4 construct: purchased Promega; host or cells: baculovirus-infected insect cells
Description: as §2, §3

hERG = biological target: T5, hERG (Homo sapiens, UniProt Q12809); experiment: hERG liability assay
T5 construct: purchased Invitrogen

CYP2D6 = biological target: T6, CYP2D6 (Homo sapiens, UniProt P10635); experiment: Cytochrome P450 assay (P450-Glo), isoform 2D6; assay type: in vitro ADME
T6 construct: purchased Promega; host or cells: baculovirus-infected insect cells
Description: as §2, §3

CYP1A2 = biological target: T7, CYP1A2 (Homo sapiens, UniProt P05177); experiment: Cytochrome P450 assay (P450-Glo), isoform 1A2; assay type: in vitro ADME
T7 construct: purchased Promega; host or cells: baculovirus-infected insect cells
T7 sequence (P05177 1-516): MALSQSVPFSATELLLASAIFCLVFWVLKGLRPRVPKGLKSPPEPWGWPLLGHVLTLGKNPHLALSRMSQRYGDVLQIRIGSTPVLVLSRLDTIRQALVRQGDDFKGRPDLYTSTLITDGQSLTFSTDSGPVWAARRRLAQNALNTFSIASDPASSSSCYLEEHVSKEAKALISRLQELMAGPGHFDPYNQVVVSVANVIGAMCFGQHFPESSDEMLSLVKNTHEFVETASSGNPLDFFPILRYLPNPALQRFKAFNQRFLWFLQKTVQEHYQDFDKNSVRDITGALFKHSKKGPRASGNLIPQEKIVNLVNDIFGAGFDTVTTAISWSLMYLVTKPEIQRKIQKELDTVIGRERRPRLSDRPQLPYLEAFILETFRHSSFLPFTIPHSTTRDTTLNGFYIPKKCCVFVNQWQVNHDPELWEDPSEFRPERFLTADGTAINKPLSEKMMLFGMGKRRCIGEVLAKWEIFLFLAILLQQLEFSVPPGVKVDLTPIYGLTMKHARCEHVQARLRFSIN
Description: as §2, §3

T5 sequence (Q12809 whole entry): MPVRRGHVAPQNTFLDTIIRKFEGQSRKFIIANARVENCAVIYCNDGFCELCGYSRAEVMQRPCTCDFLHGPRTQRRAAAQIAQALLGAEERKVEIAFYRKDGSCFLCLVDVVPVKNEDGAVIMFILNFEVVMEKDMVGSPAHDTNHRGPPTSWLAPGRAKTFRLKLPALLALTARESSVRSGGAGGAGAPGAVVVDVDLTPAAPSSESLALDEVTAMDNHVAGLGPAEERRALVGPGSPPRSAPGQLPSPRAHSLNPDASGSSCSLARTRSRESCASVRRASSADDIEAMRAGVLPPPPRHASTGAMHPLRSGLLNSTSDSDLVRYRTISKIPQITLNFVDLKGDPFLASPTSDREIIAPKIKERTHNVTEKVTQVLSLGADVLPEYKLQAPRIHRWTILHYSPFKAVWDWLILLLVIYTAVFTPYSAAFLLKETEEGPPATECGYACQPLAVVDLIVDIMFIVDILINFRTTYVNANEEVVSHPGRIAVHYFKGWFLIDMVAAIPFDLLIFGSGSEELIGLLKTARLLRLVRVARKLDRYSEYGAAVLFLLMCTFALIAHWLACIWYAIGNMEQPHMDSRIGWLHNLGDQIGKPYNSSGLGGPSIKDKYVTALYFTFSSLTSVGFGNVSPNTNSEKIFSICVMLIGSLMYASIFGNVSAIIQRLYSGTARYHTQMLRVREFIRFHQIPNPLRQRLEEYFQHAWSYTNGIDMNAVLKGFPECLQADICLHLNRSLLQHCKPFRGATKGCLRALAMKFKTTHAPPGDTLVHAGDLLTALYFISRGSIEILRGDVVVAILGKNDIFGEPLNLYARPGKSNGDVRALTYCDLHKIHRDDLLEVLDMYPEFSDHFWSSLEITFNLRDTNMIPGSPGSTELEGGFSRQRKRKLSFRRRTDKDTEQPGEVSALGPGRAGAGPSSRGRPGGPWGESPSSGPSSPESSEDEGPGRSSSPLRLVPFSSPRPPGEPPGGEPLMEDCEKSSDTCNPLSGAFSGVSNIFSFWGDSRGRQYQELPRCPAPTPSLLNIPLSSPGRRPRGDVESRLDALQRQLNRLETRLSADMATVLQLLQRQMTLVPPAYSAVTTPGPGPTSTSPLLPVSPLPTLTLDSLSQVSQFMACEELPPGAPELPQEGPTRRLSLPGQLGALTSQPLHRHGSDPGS
T6 sequence (P10635 whole entry, canonical isoform): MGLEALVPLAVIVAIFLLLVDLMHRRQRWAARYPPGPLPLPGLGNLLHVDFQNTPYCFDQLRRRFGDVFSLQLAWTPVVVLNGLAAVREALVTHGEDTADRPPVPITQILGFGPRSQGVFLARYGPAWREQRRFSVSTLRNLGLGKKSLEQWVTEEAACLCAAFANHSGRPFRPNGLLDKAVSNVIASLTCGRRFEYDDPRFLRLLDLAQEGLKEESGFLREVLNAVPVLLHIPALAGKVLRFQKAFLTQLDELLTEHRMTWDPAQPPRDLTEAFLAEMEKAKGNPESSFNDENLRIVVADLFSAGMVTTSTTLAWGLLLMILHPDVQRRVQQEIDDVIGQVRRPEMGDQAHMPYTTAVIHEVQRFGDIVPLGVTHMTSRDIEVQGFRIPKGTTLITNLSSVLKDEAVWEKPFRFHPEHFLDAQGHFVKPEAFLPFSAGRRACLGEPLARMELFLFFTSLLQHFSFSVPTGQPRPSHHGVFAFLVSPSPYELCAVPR
T4 sequence (P33261 whole entry, canonical isoform): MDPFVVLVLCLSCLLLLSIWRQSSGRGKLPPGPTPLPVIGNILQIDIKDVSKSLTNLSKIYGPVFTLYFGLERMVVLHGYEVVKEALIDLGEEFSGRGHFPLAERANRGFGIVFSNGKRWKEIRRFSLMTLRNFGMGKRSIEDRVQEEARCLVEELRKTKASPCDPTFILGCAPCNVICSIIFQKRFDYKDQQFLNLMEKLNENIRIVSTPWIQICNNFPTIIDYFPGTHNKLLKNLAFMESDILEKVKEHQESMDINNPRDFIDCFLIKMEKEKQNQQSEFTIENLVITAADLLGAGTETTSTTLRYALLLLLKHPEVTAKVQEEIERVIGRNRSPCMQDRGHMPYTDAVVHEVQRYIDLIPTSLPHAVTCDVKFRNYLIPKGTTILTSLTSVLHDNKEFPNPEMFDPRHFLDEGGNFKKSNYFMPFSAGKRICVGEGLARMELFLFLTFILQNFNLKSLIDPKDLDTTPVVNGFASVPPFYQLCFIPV
T2 sequence (P11712 whole entry, canonical isoform): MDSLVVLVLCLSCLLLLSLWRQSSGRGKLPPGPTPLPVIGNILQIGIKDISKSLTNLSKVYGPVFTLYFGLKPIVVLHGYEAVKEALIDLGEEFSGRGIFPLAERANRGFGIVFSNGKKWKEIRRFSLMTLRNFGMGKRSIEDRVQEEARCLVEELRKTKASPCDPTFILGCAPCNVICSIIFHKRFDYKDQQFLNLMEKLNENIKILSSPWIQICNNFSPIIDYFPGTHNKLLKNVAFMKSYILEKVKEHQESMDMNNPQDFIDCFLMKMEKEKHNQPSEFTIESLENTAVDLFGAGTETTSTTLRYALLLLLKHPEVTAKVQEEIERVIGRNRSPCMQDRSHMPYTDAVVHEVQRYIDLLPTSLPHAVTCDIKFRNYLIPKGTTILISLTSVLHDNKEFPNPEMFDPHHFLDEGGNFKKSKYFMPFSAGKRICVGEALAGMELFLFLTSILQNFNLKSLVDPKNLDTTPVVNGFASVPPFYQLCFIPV

Row | Compound | IC50 (TbPTR1) [µM] | IC50 (786-O cell line; Homo sapiens, 786-0) [µM] | inhibition at 50 µM (LmPTR1) [%] | IC50 (CYP2C19; read-out: CYP 2C19 IC50) [µM] | hERG IC50 (hERG) | IC50 (CYP2D6) [nM] | CYP 1A2 IC50 (CYP1A2) | IC50 (CYP2C9; read-out: CYP 2C9 IC50) [µM] | mitotox. IC50 (786-O cell line) | IC50 (hERG) [µM] | other results
1 | Nc1nc2ccc(C(=O)NCCc3ccc(Cl)c(Cl)c3)cc2s1 [Compound 1a, 2-amino-N-(3,4-dichlorophenethyl)benzo[d]thiazole-6-carboxamide] | 7.6 | 27.9 | 21 ± 2 | 8.5 | max | 100 | max |  |  |  | CYP 2C9 IC50 (CYP2C9): max
2 | Nc1nc2ccc(C(=O)N(CCc3ccc(Cl)c(Cl)c3)C3CC3)cc2s1 [Compound 1b, 2-amino-N-cyclopropyl-N-(3,4-dichlorophenethyl)benzo[d]thiazole-6-carboxamide] | 17.1 | 0.6 | 72 ± 4 | 4.7 | max | 900 | max | 5 |  |  | IC50 (LmPTR1): 39 µM and 38.9 µM
3 | Nc1nc2ccc(C(=O)N(Cc3ccc(Cl)c(Cl)c3)C3CC3)cc2s1 [Compound 1c, 2-amino-N-cyclopropyl-N-(3,4-dichlorobenzyl)benzo[d]thiazole-6-carboxamide] | 71.6 | 3.8 | 26 ± 5 | 2.9 | max | 2500 | max | 48.3 |  |  | 
4 | Nc1nc2ccc(CN(Cc3ccc(Cl)c(Cl)c3)C3CC3)cc2s1 [Compound 1d, 6-((cyclopropyl(3,4-dichlorobenzyl)amino)methyl)benzo[_d_]thiazol-2-amine] | 3.3 | 1.5 | 38 ± 4 | 1.2 | max | 2500 |  | 8.8 |  |  | IC50 (CYP1A2): 67.1 µM
5 | Nc1nc2ccc(C(=O)N(CCc3ccc(Cl)c(Cl)c3)c3ccccc3)cc2s1 [Compound 1e, 2-amino-N-(3,4-dichlorophenethyl)-N-phenylbenzo[d]thiazole-6-carboxamide] |  |  | 31 ± 2 |  |  |  |  |  |  |  | inhibition at 50 µM (TbPTR1; at 50 μM): 18 ± 1%; activity at 10 µM (786-O cell line; Homo sapiens, 786-0, at 10 µM compound concentration, read-out: mitotox. % residual activity): -33.8%; activity at 10 µM (CYP2C9; human, at 10 µM compound concentration, read-out: CYP 2C9 % residual activity): 35.3%; activity at 10 µM (CYP2C19; human, at 10 µM compound concentration, read-out: CYP 2C19 % residual activity): 31.1%; activity at 10 µM (hERG; human, at 10 µM compound concentration, read-out: hERG % residual activity): -34.8%; activity at 10 µM (CYP2D6; human, at 10 µM compound concentration, read-out: CYP 2D6 % residual activity): 59.9%; activity at 10 µM (CYP1A2; human, at 10 µM compound concentration, read-out: CYP 1A2 % residual activity): 37.7%
6 | Nc1nc2ccc(C(=O)NCCc3ccccc3)cc2s1 [Compound 2a, 2-amino-N-phenethylbenzo[d]thiazole-6-carboxamide] | 14.5 |  | 35 ± 1 | 25.6 | significant blocking of hERG channels |  |  | 37.7 | max | 4.5 | CYP 2D6 IC50 (CYP2D6): max; IC50 (CYP1A2): 100 µM
7 | Nc1nc2ccc(C(=O)NCCc3cccc(Cl)c3)cc2s1 [Compound 2b, 2-amino-N-(3-chlorophenethyl)benzo[d]thiazole-6-carboxamide] | 3.9 |  | 48 ± 2 |  |  | 900 | max |  | max | 2.8 | IC50 (CYP2C9): 35.2 µM; IC50 (LmPTR1): 91.4 µM; IC50 (CYP2C19): 6.3 µM
8 | Nc1nc2ccc(C(=O)NCCc3ccc(Cl)cc3)cc2s1 [Compound 2c, 2-amino-N-(4-chlorophenethyl)benzo[d]thiazole-6-carboxamide] | 4.8 | 40 | 32 ± 2 | 4.2 |  | 500 | max | 9.6 |  | 4.5 | 
9 | Nc1nc2ccc(C(=O)NCCc3cccc(Br)c3)cc2s1 [Compound 2d, 2-amino-N-(3-bromophenethyl)benzo[d]thiazole-6-carboxamide] | 2.4 |  | 57 ± 2 | 2.9 |  | 5000 | max | 74.5 | max | 3.2 | 
10 | Nc1nc2ccc(C(=O)NCCc3ccc(Br)cc3)cc2s1 [Compound 2e, 2-amino-N-(4-bromophenethyl)benzo[d]thiazole-6-carboxamide] | 2.9 | 0.2 | 33 ± 1 | 2.5 |  | 100 | max | 3.6 | mitotoxic | 3.2 | IC50 (LmPTR1): 78.8 µM
11 | Nc1nc2ccccc2n1Cc1ccc(Cl)c(Cl)c1 [I, 1-(3,4-dichlorobenzyl)-1H-benzimidazol-2-amine, reference compound] | 0.39 | 38.6 | 75 ± 1 | 0.3 |  |  |  | 4.2 |  | 0.85 | IC50 (CYP1A2): 29.9 µM
